The text below walks through data of ChEMBL document CHEMBL4184182, “Studies on interactions of carbazole derivatives with DNA, cell image, and cytotoxicity” (Bioorg Med Chem, 2018).

Experiment [1] deals with Quadruplex DNA. In words: Binding affinity to c-Kit G-quadruplex DNA (unknown origin) assessed as red shift at 15 uM after 5 mins by UV-Visible absorbance titration method. It is filed as nucleic-acid assay.
Experiment [2] relates to Quadruplex DNA. The experiment in a line: Binding affinity to human telomeric G-quadruplex DNA assessed as emission maximum at 5 uM after 5 mins in presence of potassium ion by fluorescence titration method (reference value: 559 nanometer). Format: nucleic-acid assay.

With `CCn1c2ccccc2c2cc(/C=C(\C#N)c3ccc[n+](C)c3)ccc21.[I-]`, the Activity in the experiment on Quadruplex DNA [1] stood at 27 nm; with Quadruplex DNA [2], 545 nm.
